Data on seven molecules can be found in patent US20240398783A1, “Compounds and Pharmaceutical Compositions Comprising Inhibitors of Amyloid Peptide Interactions with Glycosaminoglycans, Methods of Treatment and Use Thereof” (Gismo Therapeutics, Inc., priority 2021, published 2024).

Counter-ions that a name gives are not always drawn. Like-named read-outs stand apart in the source and are kept apart here.

The target of assay [1] is T1, Amyloid-beta(1-42) oligomer binding to purified human brain membranes (Homo sapiens, UniProt P05067).
T1 construct: Beta-amyloid (1-42) was purchased from rPeptide (Cat. No. A1163); purchased rPeptide A1163
Description: Inhibition of Amyloid-beta(1-42) oligomer binding to purified human brain cell membranes (ELISA). Conditions: Abeta(1-42) oligomers, read-out: Abeta42/Membrane Activity (IC-50). As for the experimental part:
(§1) Purified human brain cell membranes were prepared by differential centrifugation as follows. Five grams of frozen human brain postmortem tissue (obtained from University of Kentucky Alzheimer's Disease Center Tissue Bank) was homogenized in 50 ml HEPES-Buffered sucrose (0.32M sucrose, 4 mM HEPES pH7.4, protease inhibitors) with a motor driven glass-teflon homogenizer. After removing nuclear and cell debris by centrifugation of homogenates at 1,000×g for 10 min at 4 degree Celsius, post-nuclear supernatant was centrifuged at 100,000×g for 30 minutes to yield the crude membrane pellet. Crude membrane pellet was re-suspended in 0.32M sucrose, then centrifuged again at 100,000×g for 30 minutes to yield washed membrane pellet. Membrane pellet was resuspended in sterile PBS (pH7.4), quickly frozen, and kept in aliquots at −80 degrees Celsius. This preparation contains human brain cell membranes. Protein concentration was measured with BCA protein assay kit (Pierce Cat. No. 23227). Purified brain membranes were diluted to 0.01 mg/ml in PBS (pH 7.4) and then added to a 96 well polystyrene ELISA plate (NUNC Cat. No. 449824; 100 μl per well). Plates were incubated Over Night (ON) at 4 degrees Celsius. Following the incubation, the plate was washed consecutively, by immersion, with de-ionized water and PBS (pH 7.4). The ELISA plate was then blocked with nonfat milk (2%, 200 μl per well) for 2 hours at Room Temperature (RT). Following blocking, the plate was washed with de-ionized water then PBS (pH 7.4). GBAPs were dissolved and diluted in PBS (pH 6.5, supplemented with 0.1% BSA) at desired concentrations, added to the ELISA plates coated with brain membranes (100 μl per well) and incubated for 2 hours at RT with gentle shaking. Following incubation, the plate was washed with de-ionized water and three times with PBS (pH 6.5) plus Tween. Bound GBAP was detected by a monoclonal antibody specific for that GBAP, followed by incubation with secondary antibody conjugated to horseradish peroxidase (HRP). Antibody was diluted in PBS (pH6.5 supplemented with 1% BSA). Following each incubation with antibody, the plate was washed with de-ionized water and three times with PBS (pH6.5) wash buffer containing 0.1% Tween. The peroxidase substrate chromogen, TMB (Dako Cat. No. S1599) was added (100 μl per well) to the ELISA plate and incubated at room temperature. After 5 minutes ELISA Stop Solution (hydrochloric acid 1N, sulfuric acid 3N) was added (100 μl per well) to stop the peroxidase catalyzed colorimetric reaction. The Optical Density of the samples was measured at 450 nm using an ELISA plate reader (BioTek Synergy H1). Following color development, the % inhibition compared to control was determined. IC-50s were calculated using GraphPad Prism software.
(§2) The assay was performed as described in Example 49, with the following modifications. Following to coating the plates with purified human brain cell membranes, plates were washed as described. The compounds were dissolved in DMSO at 10 mM final concentration and further diluted prior to assay. DMSO concentration in the screening well was up to 2%. Individual compounds were co-incubated with Beta-amyloid peptides on plates coated with purified human brain membranes. Beta-amyloid (1-42) oligomers were prepared as described in Example 2. Beta-amyloid (1-40) from rPeptide (Cat No. A1153) was dissolved in DMSO, quickly frozen and kept in aliquots at −80 degrees Celsius. Beta-amyloid (1-42) oligomers or Beta-amyloid (1-40) dissolved in PBS (pH 6.5, supplemented with BSA, 0.1%) were added to the ELISA plate (100 μl per well) and incubated for 2 hours at RT with gentle shaking. Following the incubation, the plate was washed with de-ionized water and three times with PBS (pH 6.5) plus Tween. […]
(In an ELISA, binding on a coated surface is turned into a signal by an enzyme label.)

The target of assay [2] is T2, Amyloid-beta(1-40) binding to purified human brain membranes (Homo sapiens, UniProt P05067).
T2 construct: Beta-amyloid (1-40) from rPeptide (Cat No. A1153) was dissolved in DMSO; purchased rPeptide A1153
The experiment in a line: Inhibition of Amyloid-beta(1-40) binding to purified human brain cell membranes (ELISA). As to conditions: Abeta(1-40), read-out: Abeta40/Membrane Activity (IC-50). Here is the method:
as §1, §2

The target of assay [3] is Tau binding to purified human brain membranes (Homo sapiens, UniProt P10636). Description: Inhibition of Tau binding to purified human brain cell membranes (ELISA). Here is the method: as §1
The assay was performed as described in Example 49, with the following modifications.
Following to coating the plates with purified human brain cell membranes, plates were washed as described. The compounds were dissolved in DMSO at 10 mM final concentration and further diluted prior to assay. DMSO concentration in the screening well was up to 2%. Individual compounds were co-incubated with Tau on plates coated with purified human brain membranes. Tau purchased from rPeptide (Cat. No. T1001) was dissolved in DMSO (Sigma Cat. No. D2650), quickly frozen and kept in aliquots at −80 degrees Celsius. Tau dissolved in PBS (pH 6.5, supplemented with BSA, 0.1%) was added to the ELISA plate (100 μl per well) and incubated for 2 hours at RT with gentle shaking. Following the incubation, the plate was washed with de-ionized water and three times with PBS (pH 6.5) plus Tween. Bound Tau was detected by anti-Tau Monoclonal Antibody D-8 (Santa Cruz Cat. No. sc-166060), followed by secondary anti-IgG antibody conjugated to HRP (R&D System, Cat. No. HAF007). Following to color development with TMB, as described in Example 49, the Optical Density of the samples was measured at 450 nm using an ELISA plate reader. […]

Where [4] appears, read: Tau, purified human brain membranes, read-out: Tau/Membrane Activity (IC-50).

T2 sequence (P05067 672-711): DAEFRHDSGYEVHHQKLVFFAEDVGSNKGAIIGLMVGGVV
Sequence of Tau binding to purified human brain membranes (P10636 with tags, fused parts or gaps): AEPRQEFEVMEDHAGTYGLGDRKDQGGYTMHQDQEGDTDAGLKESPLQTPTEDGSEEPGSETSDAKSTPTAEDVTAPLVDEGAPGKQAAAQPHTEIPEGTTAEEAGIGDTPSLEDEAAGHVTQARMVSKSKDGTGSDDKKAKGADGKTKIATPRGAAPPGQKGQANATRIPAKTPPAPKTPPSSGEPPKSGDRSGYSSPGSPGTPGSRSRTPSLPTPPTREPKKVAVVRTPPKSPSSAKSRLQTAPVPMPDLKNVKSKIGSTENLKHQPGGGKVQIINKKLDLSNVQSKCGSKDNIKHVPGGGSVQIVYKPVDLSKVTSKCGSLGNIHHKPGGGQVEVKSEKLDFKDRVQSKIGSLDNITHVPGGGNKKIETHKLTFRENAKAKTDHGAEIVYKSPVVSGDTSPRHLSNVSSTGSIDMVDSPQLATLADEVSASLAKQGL
T1 sequence (P05067 672-713): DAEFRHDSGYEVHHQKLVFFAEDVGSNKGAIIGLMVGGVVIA

`C/C(=N\Nc1ncnc2cc(Cl)ccc12)c1ccc(-n2cnc(C)c2C)nc1` [Compound 16, 7-chloro-4-(2-(1-(6-(4,5-dimethyl-1H-imidazol-1-yl)pyridin-3-yl)ethylidene)hydrazineyl)quinazoline phosphate]: the IC50 in assay [1] was determined as 3.29 µM; in assay [2], 2.88 µM; in assay [3], 9.61 µM.
Regarding `Clc1ccc2c(N/N=C/c3ccc(-n4ccnc4)nc3)ccnc2c1` [Compound 14, (E)-4-(2-((6-(1H-imidazol-1-yl)pyridin-3-yl)methylene)hydrazineyl)-7-chloroquinoline hydrochloride], the IC50 was 6.03 µM in assay [1], 18.4 µM in assay [2] and 1.86 µM in assay [3].
On to `C/C(=N\Nc1nncc2cc(Cl)ccc12)c1ccc(-n2cc(C)nc2C)nc1` [Compound 24, (E)-6-chloro-1-(2-(1-(6-(2,4-dimethyl-1H-imidazol-1-yl)pyridin-3-yl)ethylidene)hydrazineyl)phthalazine], for which the IC50 in assay [1] amounted to 6.67 µM; in assay [2] it was 24.5 µM; in assay [3] (setting [4]), 2.56 µM.
As for `Clc1ccc2c(N/N=C/c3ccc(-n4cccn4)cc3)ccnc2c1` [Compound 3, (E)-4-((E)-(4-(1H-pyrazol-1-yl)benzylidene)hydrazono)-7-chloro-1,4-dihydroquinoline], the IC50 in assay [1] worked out at 11.5 µM; in assay [3], 8.82 µM.
`Clc1ccc2c(N/N=C/c3ccc(-n4ccnc4)cc3)ccnc2c1` [Compound 38, 4-(2-(4-(1H-imidazol-1-yl)benzylidene)hydrazineyl)-7-chloroquinoline dihydrochloride]: the values for the IC50 in assay [1], in assay [2] and in assay [3] were 4.62 µM, 0.36 µM and 4.86 µM, respectively.
On to `Cc1cc(-n2ccnc2)ccc1/C=N/Nc1ccnc2cc(Cl)ccc12` [Compound 1, (E)-4-((E)-(4-(1H-imidazol-1-yl)-2-methylbenzylidene)hydrazono)-7-chloro-1,4-dihydroquinoline], for which the IC50 stood at 2.97 µM in assay [1] and 0.49 µM in assay [3] (setting [4]).
Consider `Cc1ncn(-c2ncc(Nc3ncnc4cc(Cl)ccc34)cc2O)c1C` [Compound 40, 5-((7-chloroquinazolin-4-yl)amino)-2-(4,5-dimethyl-1H-imidazol-1-yl)pyridin-3-ol phosphoric acid salt], for which the IC50 in assay [1] turned out to be 4.36 µM; in assay [3] it was 65.1 µM.
